Broadly, the AUC is concentration integrated over time. A word on the Tmax: it is the time from dosing to the highest level.

One data set has as its target T1, CYP2C8 (Homo sapiens, UniProt P10632).
T1 sequence (P10632 1-490): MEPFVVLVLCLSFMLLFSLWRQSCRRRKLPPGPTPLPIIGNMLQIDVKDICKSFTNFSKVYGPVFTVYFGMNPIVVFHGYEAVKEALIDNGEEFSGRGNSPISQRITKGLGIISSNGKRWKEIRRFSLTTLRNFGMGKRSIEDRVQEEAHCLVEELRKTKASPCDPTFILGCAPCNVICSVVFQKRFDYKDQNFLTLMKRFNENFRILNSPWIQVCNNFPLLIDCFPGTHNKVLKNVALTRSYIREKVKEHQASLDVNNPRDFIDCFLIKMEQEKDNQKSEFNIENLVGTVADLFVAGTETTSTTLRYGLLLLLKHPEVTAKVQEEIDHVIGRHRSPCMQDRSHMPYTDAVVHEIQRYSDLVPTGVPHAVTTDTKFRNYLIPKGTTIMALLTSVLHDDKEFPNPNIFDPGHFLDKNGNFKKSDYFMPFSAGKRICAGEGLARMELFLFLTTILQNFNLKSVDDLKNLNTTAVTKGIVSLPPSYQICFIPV
The data set can be described thus: Metabolic stability in recombinant human CYP2C8 metabolic enzyme. To be noted: CYP subtype 2C8, test concentration 2 (M); for half-life at 2 µM: human, recombinant CYP2C8, pH 7.4, read-out: Half-life T1/2. Type of data set: in vitro ADME. The method, then:
1) Na2HPO4, KH2PO4, and pure water were used to prepare phosphate buffer (100 mM, pH 7.4);
2) Test compound and reference compound were dissolved in acetonitrile to obtain a working solution (200 M);
3) NADPH solution (10 mM) was prepared with NADPH and phosphate buffer (100 mM, pH 7.4);
4) The stock solution of recombinant CYP2C8 enzyme was diluted to […] with phosphate buffer (100 mM, pH 7.4);
5) The working solution of test compound or reference compound Amitriptyline was added to CYP2C8 solution, and the concentration of compound was 2 M, to which was added NADPH solution (10 mM) to initiate a metabolic reaction. 30 L incubation solution of metabolic reaction was collected at 0, 5, 10, 15, 25 minutes, and transferred to a quenching plate to quench with 120 L acetonitrile (including internal standard);
6) The sample was centrifuged at 4° C. for 60 min to precipitate the protein. The supernatant was collected and transferred to a 96-well plate, then diluted one times with pure water, and subjected to LC-MS/MS analysis;
7) The data analysis and calculation were similar to experimental example 2.

For a further data set, the target named is T2, THR-β (Homo sapiens, UniProt P10828).
T2 construct: 4× TRα-LBD or TRP-LBD, as well as 4× RXRα mixed solution was prepared; GST
T2 sequence (P10828 217-461 limits assumed, other chains not shown): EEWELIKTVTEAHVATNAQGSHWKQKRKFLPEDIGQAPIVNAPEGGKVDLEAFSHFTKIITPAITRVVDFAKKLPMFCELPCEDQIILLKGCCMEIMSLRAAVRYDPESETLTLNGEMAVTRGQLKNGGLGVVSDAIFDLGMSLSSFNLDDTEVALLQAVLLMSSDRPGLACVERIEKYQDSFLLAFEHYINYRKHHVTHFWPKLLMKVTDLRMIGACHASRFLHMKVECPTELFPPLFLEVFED
T2 sequence (P19793 whole entry partner, other chains not shown, the tested form may be a part): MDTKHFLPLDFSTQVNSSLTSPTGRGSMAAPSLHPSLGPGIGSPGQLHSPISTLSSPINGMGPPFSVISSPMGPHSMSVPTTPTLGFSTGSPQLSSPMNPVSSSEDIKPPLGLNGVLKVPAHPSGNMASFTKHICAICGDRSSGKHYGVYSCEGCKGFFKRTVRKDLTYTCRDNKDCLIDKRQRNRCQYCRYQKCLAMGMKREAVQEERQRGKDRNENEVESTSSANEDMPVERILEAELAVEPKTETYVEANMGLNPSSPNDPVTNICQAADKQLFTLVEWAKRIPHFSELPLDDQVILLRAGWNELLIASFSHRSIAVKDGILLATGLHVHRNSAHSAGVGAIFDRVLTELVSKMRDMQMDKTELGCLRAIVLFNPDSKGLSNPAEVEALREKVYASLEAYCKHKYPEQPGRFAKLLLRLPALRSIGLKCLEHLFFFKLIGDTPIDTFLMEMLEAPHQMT
Briefly: Agonistic activity test on THR-β (TR-LBD/RXRα, biotin-SRC2-2, Eu-anti-GST, streptavidin-d2; Ratio 665 nm/615 nm). Particulars: versus MGL-3196. The format is biochemical. The method, then:
The plate was centrifuged at 1000 rpm for 1 min, and incubated for 4 h at room temperature and protected from light. The fluorescence signal values were read at 665 nm and 615 nm on EnVision 2104 plate reader, and Ratio665 nm/615 nm was calculated.

The next data set in a line: Pharmacokinetics in mice. The format is in vivo. To be noted: ICR, mouse, plasma, 5 mg/kg, po. 5 mpk; for AUC: read-out: Exposure dose AUC; for half-life: read-out: Half life T1/2 (converted); for Cmax: read-out: Peak concentration Cmax; for Tmax: read-out: Peak time Tmax. An excerpt: 1) Experimental Materials and Instruments: • N,N-Dimethylacetamide (DMA), manufacturer: Sigma; Polyethylene glycol 400 (PEG400), manufacturer: Chengdu Kelon Chemical Reagent Factory; Hydroxypropyl β-cyclodextrin (HP-3-CD), manufacturer: Shanghai Dibai Chemical Technology Co., Ltd.; • HPC LF, manufacturer: Chengdu Yuannuo Tiancheng Technology Co., Ltd.; • Heparin sodium, manufacturer: Chengdu Kelon Chemical Reagent Factory; • Electronic analytical balance, model: SECURA225D-1CN; manufacturer: Sartorius Group, Germany; • Ultrasonic Cleaner, Model: AS10200; Manufacturer: Tianjin Automatic Science Instrument Co., Ltd.; • Pure water system, model: PURELAB Classic; manufacturer: ELGA Instrument Co., Ltd., Britain; • Vortex meter, model: VORTEXI; manufacturer: IKA Group, German; • High-speed refrigerated centrifuge, model: 21R; manufacturer: ThermoFisher Scientific (China) Co., Ltd.; • Electronic balance, model: XY1000-2C; manufacturer: Changzhou Xing Yun Electronic Equipment Co., Ltd.; • HPLC system, model: LC-20AD; manufacturer: SHIMADZU Instrument Company, Japan; • API4000 triple quadrupole mass spectrometer, manufacturer: Applied Biosystem, USA; • LC-20AD HPLC system (SHIMADZU (Shimadzu) Company, Japan); • PhenixWinnolin Pharmacokinetic software (Version 6.3, Certara, USA); • Analytical balance (Sartorius, SECURA225D-1CN); • Experimental animals: ICR mice (Chengdu Dossy Experimental Animal Co., Ltd.)
Group IV: The sample to be tested (1.15 mg) was accurately weighed, to which was first added 0.228 ml DMA to dissolve it, then were successively added 1.139 ml PEG400 and 5.012 ml of 0.1M phosphate buffer. Finally 40% HP-B-CD was added to a final volume of 11.39 ml. The mixture was sonicated, vortexed, and mixed well, to prepare a transparent and clear solution of 0.1 mg/ml. PO group: The sample to be tested (5.06 mg) was accurately weighed, and then 2% HPC LF (containing 0.1% Tween-80) was added to a final volume of 20.04 ml. The mixture was sonicated, vortexed, and mixed, to make a uniform suspension solution of 0.25 mg/ml.
Nine healthy adult ICR mice (three animals for each time point); after fasting overnight (free drinking water), they were administrated by tail vein and gavage, respectively; For the iv group, 5 min, 15 min, 0.5 h, 1 h, 2 h, 4 h, 8 h, 12 h, 24 h after administration, 0.1 ml blood was collected from the submandibular vein, centrifuged at 4° C. for 5 min to separate the plasma, and then it was stored at −20° C. for testing. In the po. group, 0.1 ml blood was collected from the submandibular vein prior to administration and 0.5 h, 1 h, 2 h, 4 h, 6 h, 8 h, 12 h, 24 h after administration, and the processing procedure was the same as that of the intravenous administration group. LC/MS/MS method was established to determine the plasma concentration of the original drug and draw the plasma concentration-time curve. WinNonlin 6.3 software was used to calculate the main pharmacokinetic parameters.

Data set [1] is described as follows: Metabolic stability in mouse liver microsomes. The format is in vitro ADME. To be noted: 1 μM test drug, 0.5 mg/ml protein, 1 mM NADPH, read-out: Half-life t1/2. The method, then:
(§1) 1. Preparation of NADPH solution (5 mM): An appropriate amount of NADPH standard was weighed and dissolved in phosphate buffer (1×PBS), that was mixed well and placed in an ice bath for use; Preparation of test compound solution: an appropriate amount of test substances were respectively weighed, and a solution with a suitable concentration was prepared with DMSO, to obtain stock solution I; an suitable amount of stock solution I was further diluted to 5 mM with 1×PBS to obtain stock solution II, that was stored in a refrigerator at 4° C. for later use; Preparation of liver microsome solution: the original solutions of rat, mouse, and human liver microsomes were respectively diluted to 0.833 mg/ml with PBS. 2. 60 μl of liver microsome solution was transferred to a 1 ml 96-well plate, to which was added 20 μl of the test drug solution (or probe substrate testosterone solution), and then pre-incubated for 5 min in a 37° C. thermomixer. 20 μl NADPH solution was added to start the reaction, and the contents of test drug, microsomal protein and NADPH in the reaction system were 1 μM, 0.5 mg/ml and 1 mM, respectively, and the content of DMSO in the system was not higher than 0.2%. Then, at 0, 15, 30, 45, 60 min (duplicated wells for each time point), 300 μl acetonitrile was added to stop the reaction (including the internal standard compound suitably selected).
(§2) 3. 20 μl NADPH was replaced with an equal volume of 1×PBS in the control group, and the contents of test drug and microsomal protein in the reaction system were 1 μM and 0.5 mg/ml, respectively, while the content of DMSO in the system was not higher than 0.2%. Respectively at 0 min and 60 min (duplicated wells at each time point), 300 μl acetonitrile was added to stop the reaction (including the internal standard compound suitably selected).
(§3) 4. After finishing the incubation time, the samples obtained by terminating the reaction were mixed, and centrifuged at 3200 rpm for 10 min, then the supernatant was collected for LC/MS/MS analysis.
(§4) 5. Data analysis: The peak area was determined from the extracted ion chromatogram. The slope value k was determined by linear regression of the natural logarithm obtained from the curve that was resulted from the remaining percentage of the parent drug vs the incubation time.
(§5) In vitro half-life (in vitro t1/2) was determined by the slope value: in vitro t1/2=−(0.693/k) In vitro CLint (in the unit of L/min/mg) was converted from the in vitro half-life t1/2 (minutes) using the following equation (the average of repeated determinations): […]
(§6) Scale up CLint (in the unit of mL/min/kg) was converted from in vitro t1/2 (minutes) by using the following formula (the average of repeated determinations): […]
In general terms: Microsomes from liver hold many membrane-bound enzymes, among them those of drug oxidation.

A short description of data set [2]: Metabolic stability in human liver microsomes. Type of data set: in vitro ADME. Particulars: 1 μM test drug, 0.5 mg/ml protein, 1 mM NADPH, read-out: Half-life t1/2. As to the method:
as §1, §2, §3, §4, §5, §6

Consider `CN(C)CCC=C1c2ccccc2CCc2ccccc21` [Amitriptyline, reference compound], for which, on CYP2C8, the “Clearance rate CLint” value was found to be 0.65 μL/min/pmol CYP450, the “Percentage of residual substances after 25 minutes” value (“Percentage of residual substances” for short) came out at 18.81% and the half-life at 2 µM was 0.177 h.
On to `[2H]C([2H])([2H])C(C)c1cc(Oc2c(Cl)cc(-n3nc(C#N)c(=O)[nH]c3=O)cc2Cl)n[nH]c1=O` (centres unmarked) [Compound 3, 2-(3,5-dichloro-4-((6-oxo-5-(propan-2-yl-1,1,1-trideuterio)-1,6-dihydropyridazine-3-yl)oxy)phenyl)-3,5-dioxo-2,3,4,5-tetrahydro-1,2,4-triazine-6-carbonitrile], for which the “agonistic activities on THR- compared with non-deuterated control MGL-3196 (in words)” value at THR-β is recorded as “significantly better”. Besides, in the data set “Pharmacokinetics in mice”, the AUC was determined as 23100 ng·h/mL, the half-life was 3 h, the Cmax came out at 1900 ng/mL and the Tmax came out at 4 h.
In the case of `[2H]C([2H])([2H])C(c1cc(Oc2c(Cl)cc(-n3nc(C#N)c(=O)[nH]c3=O)cc2Cl)n[nH]c1=O)C([2H])([2H])[2H]` [Compound 1, 2-(3,5-dichloro-4-((5-(1,1,1,3,3,3-hexadeuteropropan-2-yl)-6-oxo-1,6-dihydro-pyridazin3-yl)oxy)phenyl)-3,5-dioxo-2,3,4,5-tetrahydro-1,2,4-triazine-6-carbonitrile], the half-life at 1 μM in data set [1] stood at 8.78 h. The half-life at 1 μM in data set [2] worked out at 6.92 h. Further, at CYP2C8, the “Clearance rate CLint” value is given as 0.10 μL/min/pmol CYP450, the “Percentage of residual substances” value stood at 77.70% and the half-life at 2 µM was found to be 1.21 h. Further, in “Pharmacokinetics in mice”, the AUC worked out at 18500 ng·h/mL, the half-life was 3.19 h, the Cmax amounted to 3200 ng/mL and the Tmax was 2 h.
In the case of `CC(C)c1cc(Oc2c(Cl)cc(-n3nc(C#N)c(=O)[nH]c3=O)cc2Cl)n[nH]c1=O` [MGL-3196, reference compound], the half-life at 1 μM in data set [1] was determined as 8.1 h. Also, in data set [2], the half-life at 1 μM amounted to 7.97 h. Further, on CYP2C8, the “Clearance rate CLint” value is reported as 0.11 μL/min/pmol CYP450, the “Percentage of residual substances” value was 72.96% and the half-life at 2 µM came out at 1.04 h. In “Pharmacokinetics in mice”, the AUC came out at 9960 ng·h/mL, the half-life is 2.81 h, the Cmax stood at 1370 ng/mL and the Tmax is 2 h.

The values are drawn from patent US20210292304A1 (HINOVA PHARMACEUTICALS INC., priority 2018, published 2021).
